Measurements as given in PMC6008492, “Structure activity relationship studies on rhodanines and derived enethiol inhibitors of metallo-β-lactamases” (Bioorganic & Medicinal Chemistry, 2018).
Like-named read-outs stand apart in the source and are kept apart here.

Tests used:
SPM-1 = SPM-1 (Pseudomonas aeruginosa, UniProt Q8G9Q0); assay: SPM-1 inhibition, fluorogenic cephalosporin (FC5) hydrolysis; format: biochemical
Method: (§1) Inhibition analyses against bacterial MBLs and SBLs were performed as described previously.[22], [24], [26] Residual enzyme activities were determined for a range of inhibitor concentrations. Non-linear regression fitting of IC50 curves was carried out using a three-parameter dose–response curve in GraphPad Prism. Errors in IC50 values are expressed as: σ(logIC50)/logIC50×IC50
(§2) We first screened the inhibitors against a representative set of presently clinically important and other MBLs[22], comprising both Class B1 enzymes (NDM-1, New Delhi MBL-1; VIM-2, Verona integron–encoded MBL-2; BcII, Bacillus cereus II MBL; SPM-1, São Paulo MBL-1; IMP-1, imipenemase MBL-1) and the Class B2 MBL CphA (carbapenem hydrolysing MBL from Aeromonas hydrophila).[22] The latter MBL (CphA) only utilises one active site Zn(II) ion in catalysis, whilst the others normally use two Zn(II) ions.
Figure S5: IC50 curves for SPM-1 inhibition time courses. Residual activities were calculated from the
(§3) initial rate of FC5 hydrolysis after incubation of the enzyme with the inhibitor for 10 minutes. […]

IMP-1 = target: T1, IMP-1 (Serratia marcescens, UniProt P52699); assay: IMP-1 inhibition, fluorogenic cephalosporin (FC5) hydrolysis; format: biochemical
T1 construct: made in house
Method: as §1, §2
Figure S3: IC50 curves for IMP-1 inhibition time courses. Residual activities were calculated from the
initial rate of FC5 hydrolysis after incubation of the enzyme with the inhibitor for 10 minutes.

BcII = target: T2, BcII (Bacillus cereus, UniProt P04190); assay: biochemical
T2 construct: made in house
Method: as §1, §2
Figure S2: IC50 curves for BcII inhibition time courses. Residual activities were calculated from the initial
rate of FC5 hydrolysis after incubation of the enzyme with the inhibitor for 10 minutes. […]

VIM-2 = target: T3, VIM-2 (Escherichia coli, UniProt Q5U7L7); assay: biochemical
T3 construct: made in house
Method: as §1
as §2, with “ions. We also screened the inhibitors against a representative panel of SBLs from different classes (TEM-1, Temoneira β-lactamase-1, class A; CTX-M-15, cefotaxime hydrolysing β-lactamase from Munich 15, class A, extended spectrum β-lactamase (ESBL); AmpC E. coli, class C, and OXA-10, oxacillinase-10, class D).” for “ions.”
Figure S6: IC50 curves for VIM-2 inhibition time courses. Residual activities were calculated from the
as §3

NDM-1 = target: T4, NDM-1 (Klebsiella pneumoniae, UniProt C7C422); assay: NDM-1 inhibition, fluorogenic cephalosporin (FC5) hydrolysis; format: biochemical
T4 construct: made in house
Method: as §1, §2
Figure S4: IC50 curves for NDM-1 inhibition time courses. Residual activities were calculated from the
as §3

CphA = target: T5, CphA (Aeromonas hydrophila, UniProt P26918); assay: CphA (subclass B2 MBL) inhibition; format: biochemical
T5 construct: made in house
Method: as §1
as §2, with “ions. We also screened the inhibitors against a representative panel of SBLs from different classes (TEM-1, Temoneira β-lactamase-1, class A; CTX-M-15, cefotaxime hydrolysing β-lactamase from Munich 15, class A, extended spectrum β-lactamase (ESBL); AmpC E. coli, class C, and OXA-10, oxacillinase-10, class D).” for “ions.”

[1] = test system: MBLs (SPM-1, IMP-1, BcII, VIM-2, NDM-1); format: biochemical; details: for IC50: lower end of the range, read-out: IC50 values from (lowest across the MBL panel)
Method: as §1
as §2, with “ions. We also screened the inhibitors against a representative panel of SBLs from different classes (TEM-1, Temoneira β-lactamase-1, class A; CTX-M-15, cefotaxime hydrolysing β-lactamase from Munich 15, class A, extended spectrum β-lactamase (ESBL); AmpC E. coli, class C, and OXA-10, oxacillinase-10, class D).” for “ions.”

TEM-1 = target: T6, TEM-1 (Escherichia coli, UniProt P62593); assay: SBL inhibition, TEM-1; format: biochemical; details: read-out: residual activity TEM-1
T6 construct: made in house
Method: as §1
as §2, with “ions. We also screened the inhibitors against a representative panel of SBLs from different classes (TEM-1, Temoneira β-lactamase-1, class A; CTX-M-15, cefotaxime hydrolysing β-lactamase from Munich 15, class A, extended spectrum β-lactamase (ESBL); AmpC E. coli, class C, and OXA-10, oxacillinase-10, class D).” for “ions.”
(§4) Figure S1. Residual activities of serine-β-lactamases (SBLs) upon inhibition by rhodanines and enethiols at
(§5) Inhibition of intact rhodanine on a panel of SBLs
(§6) Inhibition of intact rhodanine amide on a panel […]

CTX-M-15 = target: T7, CTX-M-15 (Escherichia coli, UniProt Q9EXV5); assay: SBL inhibition, CTX-M-15; format: biochemical; details: read-out: residual activity CTX-M-15
T7 construct: made in house
Method: as §1
as §2, with “ions. We also screened the inhibitors against a representative panel of SBLs from different classes (TEM-1, Temoneira β-lactamase-1, class A; CTX-M-15, cefotaxime hydrolysing β-lactamase from Munich 15, class A, extended spectrum β-lactamase (ESBL); AmpC E. coli, class C, and OXA-10, oxacillinase-10, class D).” for “ions.”
as §4, §5, §6

AmpC = target: T8, AmpC (Escherichia coli, UniProt P00811); assay: SBL inhibition, AmpC; format: biochemical, E. coli; details: read-out: residual activity AmpC
T8 construct: made in house
Method: as §1
as §2, with “ions. We also screened the inhibitors against a representative panel of SBLs from different classes (TEM-1, Temoneira β-lactamase-1, class A; CTX-M-15, cefotaxime hydrolysing β-lactamase from Munich 15, class A, extended spectrum β-lactamase (ESBL); AmpC E. coli, class C, and OXA-10, oxacillinase-10, class D).” for “ions.”
as §4, §5, §6

OXA-10 = target: T9, OXA-10 (Pseudomonas aeruginosa, UniProt P14489); assay: SBL inhibition, OXA-10; format: biochemical; details: read-out: residual activity OXA-10
T9 construct: made in house
Method: as §1
as §2, with “ions. We also screened the inhibitors against a representative panel of SBLs from different classes (TEM-1, Temoneira β-lactamase-1, class A; CTX-M-15, cefotaxime hydrolysing β-lactamase from Munich 15, class A, extended spectrum β-lactamase (ESBL); AmpC E. coli, class C, and OXA-10, oxacillinase-10, class D).” for “ions.”
as §4, §5, §6

[2] = enethiols 6 assayed as sodium salts, 10 min incubation, read-out: IC50 SPM-1 (converted)
[3] = enethiols 6 assayed as sodium salts, 10 min incubation, read-out: IC50 IMP-1 (converted)
[4] = enethiols 6 assayed as sodium salts, 10 min incubation, read-out: IC50 BcII (converted)
[5] = enethiols 6 assayed as sodium salts, 10 min incubation, read-out: IC50 VIM-2 (converted)
[6] = enethiols 6 assayed as sodium salts, 10 min incubation, read-out: IC50 NDM-1

T1 sequence (P52699 19-246, looked up, species assumed): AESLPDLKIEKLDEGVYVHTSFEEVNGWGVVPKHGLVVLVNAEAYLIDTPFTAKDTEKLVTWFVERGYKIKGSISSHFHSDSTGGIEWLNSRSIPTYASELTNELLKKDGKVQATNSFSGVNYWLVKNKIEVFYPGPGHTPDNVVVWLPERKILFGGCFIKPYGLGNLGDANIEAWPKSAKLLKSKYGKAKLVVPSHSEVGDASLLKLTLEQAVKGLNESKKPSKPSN
T2 sequence (P04190 31-257): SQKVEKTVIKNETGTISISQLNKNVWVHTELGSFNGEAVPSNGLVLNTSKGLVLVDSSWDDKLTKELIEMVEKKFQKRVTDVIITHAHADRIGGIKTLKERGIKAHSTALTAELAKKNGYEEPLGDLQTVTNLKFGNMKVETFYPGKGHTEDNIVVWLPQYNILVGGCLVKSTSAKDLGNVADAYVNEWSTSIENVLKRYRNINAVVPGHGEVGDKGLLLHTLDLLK
Sequence of SPM-1 (Q8G9Q0 entry or part of it): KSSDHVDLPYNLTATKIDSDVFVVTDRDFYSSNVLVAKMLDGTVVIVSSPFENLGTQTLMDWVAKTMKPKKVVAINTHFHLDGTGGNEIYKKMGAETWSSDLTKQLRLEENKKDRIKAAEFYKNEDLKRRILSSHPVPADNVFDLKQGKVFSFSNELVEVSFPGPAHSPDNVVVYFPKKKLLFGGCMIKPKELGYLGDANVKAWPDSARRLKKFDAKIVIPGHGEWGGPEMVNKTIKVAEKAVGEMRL
T4 sequence (C7C422 29-270, looked up, species assumed): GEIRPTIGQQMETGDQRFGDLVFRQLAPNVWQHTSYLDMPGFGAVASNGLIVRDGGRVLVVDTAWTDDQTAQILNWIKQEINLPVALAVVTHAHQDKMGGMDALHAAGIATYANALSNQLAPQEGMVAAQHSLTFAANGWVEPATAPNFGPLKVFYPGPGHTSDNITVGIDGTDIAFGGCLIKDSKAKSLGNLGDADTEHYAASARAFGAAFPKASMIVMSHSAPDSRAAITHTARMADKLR
T5 sequence (P26918 28-254): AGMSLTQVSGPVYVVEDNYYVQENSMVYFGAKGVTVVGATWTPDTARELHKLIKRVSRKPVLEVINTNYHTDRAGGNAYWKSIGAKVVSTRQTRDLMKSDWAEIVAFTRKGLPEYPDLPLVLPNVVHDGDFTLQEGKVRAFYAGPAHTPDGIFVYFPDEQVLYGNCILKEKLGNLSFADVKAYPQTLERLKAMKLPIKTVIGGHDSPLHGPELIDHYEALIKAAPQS
T8 sequence (P00811 20-377): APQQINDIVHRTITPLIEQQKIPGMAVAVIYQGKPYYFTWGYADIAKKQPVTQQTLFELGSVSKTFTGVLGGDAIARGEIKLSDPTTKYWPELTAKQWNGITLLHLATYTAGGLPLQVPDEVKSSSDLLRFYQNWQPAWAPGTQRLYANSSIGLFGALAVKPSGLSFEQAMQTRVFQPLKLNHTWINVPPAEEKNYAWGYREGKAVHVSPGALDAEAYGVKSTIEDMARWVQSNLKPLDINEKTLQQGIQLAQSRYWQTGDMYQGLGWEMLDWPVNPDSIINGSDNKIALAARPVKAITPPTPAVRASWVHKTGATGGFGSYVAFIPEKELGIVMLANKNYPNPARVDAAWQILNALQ
T9 sequence (P14489 20-266, species assumed): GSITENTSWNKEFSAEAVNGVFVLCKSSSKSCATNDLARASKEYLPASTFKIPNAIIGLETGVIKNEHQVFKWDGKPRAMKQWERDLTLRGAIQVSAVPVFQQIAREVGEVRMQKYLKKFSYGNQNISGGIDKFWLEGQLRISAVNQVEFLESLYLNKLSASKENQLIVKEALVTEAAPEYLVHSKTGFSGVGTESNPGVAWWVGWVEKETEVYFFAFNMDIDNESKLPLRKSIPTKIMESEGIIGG
T7 sequence (Q9EXV5 29-291, species assumed): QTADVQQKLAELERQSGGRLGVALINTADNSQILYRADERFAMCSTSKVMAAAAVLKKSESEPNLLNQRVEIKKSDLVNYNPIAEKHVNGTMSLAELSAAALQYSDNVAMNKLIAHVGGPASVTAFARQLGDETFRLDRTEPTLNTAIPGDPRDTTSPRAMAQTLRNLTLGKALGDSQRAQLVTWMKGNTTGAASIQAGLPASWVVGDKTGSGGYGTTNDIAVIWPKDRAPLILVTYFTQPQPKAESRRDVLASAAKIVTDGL
T6 sequence (P62593 24-286 limits assumed): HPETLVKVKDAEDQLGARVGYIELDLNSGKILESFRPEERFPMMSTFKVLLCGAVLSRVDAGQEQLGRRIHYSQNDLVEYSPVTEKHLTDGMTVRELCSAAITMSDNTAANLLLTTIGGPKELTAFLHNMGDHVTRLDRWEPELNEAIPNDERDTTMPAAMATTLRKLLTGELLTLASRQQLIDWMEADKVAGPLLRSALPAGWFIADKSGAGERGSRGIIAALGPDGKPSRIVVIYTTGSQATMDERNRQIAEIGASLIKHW

## O=C(O)/C(S)=C/c1c(Cl)ccc(Cl)c1Cl [ML302F, reference compound]
SPM-1; [2]
  IC50: 20 nM
IMP-1; [3]
  IC50: 20 nM
BcII; [4]
  IC50: 80 nM
VIM-2; [5]
  IC50: 40 nM
NDM-1; [6]
  IC50: 2.4 µM
CphA; read-out: IC50 CphA
  IC50: 0.2 ± 0.004 µM

## O=C(O)/C(S)=C/c1cccc(Cl)c1Cl [Compound 6n]
SPM-1; [2]
  IC50: 200 nM
IMP-1; [3]
  IC50: 1000 nM
BcII; [4]
  IC50: 1000 nM
VIM-2; [5]
  IC50: 1300 nM
NDM-1; [6]
  IC50: 46.5 µM
[1]
  IC50: 200 nM

## O=C(O)/C(S)=C/c1c(Cl)cccc1Cl [Compound 6m]
SPM-1; [2]
  IC50: 10 nM
IMP-1; [3]
  IC50: 10 nM
BcII; [4]
  IC50: 70 nM
VIM-2; [5]
  IC50: 30 nM
NDM-1; [6]
  IC50: 0.6 µM
CphA
  IC50: 0.8 ± 0.02 µM
[1]
  IC50: 10 nM

## CN1CCN(NC(=O)CN2C(=O)/C(=C/c3c(Cl)ccc(Cl)c3Cl)SC2=S)CC1 [ML302, reference compound]
SPM-1; [2]
  IC50: 100 nM
SPM-1; ratio of IC50 values
  fold less active than ML302F, SPM-1: ~5 fold
IMP-1; [3]
  IC50: 90 nM
BcII; [4]
  IC50: 300 nM
BcII; ratio of IC50 values
  fold less active than ML302F, BcII: ~4 fold
VIM-2; [5]
  IC50: 60 nM
NDM-1; [6]
  IC50: 15.6 µM
NDM-1; ratio of IC50 values
  fold less active than ML302F, NDM-1: ~15 fold
CphA; read-out: IC50 CphA
  IC50: > 50 µM

## O=C(O)/C(S)=C/c1ccccc1Br [Compound 6h]
SPM-1; [2]
  IC50: 3500 nM
IMP-1; [3]
  IC50: 800 nM
BcII; [4]
  IC50: 5800 nM
VIM-2; [5]
  IC50: 2700 nM
NDM-1; [6]
  IC50: 16.2 µM

## O=P(O)(O)C(S)c1ccc(Br)cc1F (stereo not drawn) [Compound 26]
SPM-1; read-out: % Residual activity versus SPM-1
  remaining activity at 100 µM: 95 ± 6%
IMP-1; read-out: % Residual activity versus IMP-1
  remaining activity at 100 µM: 100%
BcII; read-out: % Residual activity versus BcII
  remaining activity at 100 µM: 100%
VIM-2; read-out: % Residual activity versus VIM-2
  remaining activity at 100 µM: 100%
NDM-1; read-out: % Residual activity versus NDM-1
  remaining activity at 100 µM: 96 ± 3%
[1]; at 100 µM
  MBL inhibition, result in words: inactive

## Cc1ccc(/C=C2\SC(=S)N(CC(=O)NN3CCN(C)CC3)C2=O)cc1 [Compound 5b]
SPM-1; [2]
  IC50: > 50000 nM
IMP-1; [3]
  IC50: > 50000 nM
BcII; [4]
  IC50: > 50000 nM
VIM-2; [5]
  IC50: > 50000 nM
NDM-1; [6]
  IC50: 28 µM

## O=C(O)CN1C(=O)/C(=C/c2ccccc2Br)SC1=S [Compound 3h]
SPM-1; [2]
  IC50: 36600 ± 800 nM
IMP-1; [3]
  IC50: 32500 ± 1300 nM
BcII; [4]
  IC50: > 50000 nM
VIM-2; [5]
  IC50: > 50000 nM
NDM-1; [6]
  IC50: > 50 µM

## CN1CCN(NC(=O)CN2C(=O)/C(=C/c3ccccc3)SC2=S)CC1 [Compound 5a]
SPM-1; [2]
  IC50: > 50000 nM
IMP-1; [3]
  IC50: 22700 nM
BcII; [4]
  IC50: > 50000 nM
VIM-2; [5]
  IC50: 16400 nM
NDM-1; [6]
  IC50: 26.7 µM
CphA
  IC50: > 50 µM

## O=C(O)CN1C(=O)/C(=C/c2ccccc2)SC1=S [Compound 3a]
SPM-1; [2]
  IC50: > 50000 nM
IMP-1; [3]
  IC50: > 50000 nM
BcII; [4]
  IC50: > 50000 nM
VIM-2; [5]
  IC50: 36800 ± 300 nM
NDM-1; [6]
  IC50: > 50 µM

## O=C(O)/C(S)=C/c1c2ccccc2cc2ccccc12 [Compound 6r]
BcII; [4]
  IC50: > 50000 nM
VIM-2; [5]
  IC50: 50 ± 1 nM
NDM-1; [6]
  IC50: 1.7 ± 0.6 µM
TEM-1
  remaining activity at 200 µM: ~1%
CTX-M-15
  remaining activity at 200 µM: ~65%
AmpC
  remaining activity at 200 µM: ~41%
OXA-10
  remaining activity at 200 µM: ~47%

## O=C(O)C(S)Cc1ccccc1 (stereo not drawn) [Compound 13b]
SPM-1; Table 2, read-out: IC50 versus SPM-1
  IC50: 70 ± 1 nM
IMP-1; Table 2, read-out: IC50 versus IMP-1
  IC50: 50 ± 2 nM
BcII; Table 2, read-out: IC50 versus BcII
  IC50: 1400 ± 300 nM
VIM-2; Table 2, read-out: IC50 versus VIM-2
  IC50: 70 ± 2 nM
NDM-1; Table 2, read-out: IC50 versus NDM-1
  IC50: 38.7 ± 4.7 µM
CphA; Table 2, read-out: IC50 versus CphA
  IC50: 130 ± 10 µM

## O=C(O)/C(S)=C/c1c(F)cccc1Cl [Compound 6j]
SPM-1; [2]
  IC50: 4.3 nM
IMP-1; [3]
  IC50: 30 nM
BcII; [4]
  IC50: 60 nM
VIM-2; [5]
  IC50: 50 nM
NDM-1; [6]
  IC50: 4.4 µM
